Where only a bound is given, the exact number is not on record here.

The target in the assay is T1, Glucocorticoid Receptor (Homo sapiens, UniProt P04150).
T1 construct: expressed in transfected cells
T1 sequence (P04150 524-758 limits assumed): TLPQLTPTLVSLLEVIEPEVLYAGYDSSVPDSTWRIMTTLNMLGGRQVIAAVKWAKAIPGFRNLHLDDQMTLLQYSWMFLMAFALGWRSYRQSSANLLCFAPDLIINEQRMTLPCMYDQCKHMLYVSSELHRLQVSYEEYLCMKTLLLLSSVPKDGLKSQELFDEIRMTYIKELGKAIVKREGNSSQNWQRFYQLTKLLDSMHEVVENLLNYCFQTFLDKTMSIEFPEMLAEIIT
Nature of the assay: Agonistic mode of action on the glucocorticoid receptor (CHO-Gal4/GR luciferase reporter cell line). Type of assay: cell-based. The following applies: CHO-Gal4/GR luciferase reporter cells; observed in the agonistic assay or the antagonistic assay (mode not given); read-out: IC50 or EC50 range. The text has this:
Potential selective glucocorticoid receptor modulators of this intervention can be tested for modulation of the activity of the glucocorticoid receptor using cell-based assays. These assays involve a Chinese hamster ovary (CHO) cell line which contains fragments of the glucocorticoid receptor as well as fusion proteins. The glucocorticoid receptor fragments used are capable of binding the ligand (e.g. beclomethasone) to identify molecules that compete for binding with glucocorticoid receptor ligands. In more detail, the glucocorticoid receptor ligand binding domain is fused to the DNA binding domain (DBD) of the transcriptionfactor GAL4 (GAL4 DBD-GR) and is stably integrated into a CHO cell line containing a GAL4-UAS-Luciferase reporter construct. […] After cell lysis the luminescence that is produced by luciferase after addition of the substrate is detected and EC50 or IC50 values can be calculated. Engagement of molecules which induce gene expression via glucocortocoid receptor binding to the DNA leads to expression of the luciferase gene under the control of the fusion protein GAL4 DBD-GR and therefore to a dose-dependent increase of the luminescence signal. Binding of molecules which repress beclomethasone-induced gene expression of the luciferase gene under the control of the fusion protein GAL4 DBD-GR leads to a dose-dependent reduction of the luminescence signal.
The reporter cell line CHO-Gal4/GR consisted of a chinese hamster ovary (CHO) cell line (Leibniz Institute DSMZ—German Collection of Microorganisms and Cell Cultures GmbH: ACC-110) containing a firefly luciferase gene under the control of the GR ligand binding domain fused to the DNA binding domain (DBD) of GAL4 (GAL4 DBD-GR) stably integrated into CHO cells. This cell line was established by stable transfection of CHO cells with a GAL4-UAS-Luciferase reporter construct. In a subsequent step the ligand binding domain of the GR cloned into pIRES2-EGFP-GAL4 containing the DNA binding domain of GAL4 from pFA-AT2 was transfected. This fusion construct activated firefly luciferase expression under the control of a multimerized GAL4 upstream activation sequence (UAS). The signal of the emitted luminescence was recorded by the FLIPR^TETRA. This allowed for specific detection of ligand-induced activation of the GR and therefore for the identification of compounds with agonistic properties. The GAL4/UAS reporter was premixed with a vector that constitutively expressed Renilla luciferase, which served as an internal positive control for transfection efficiency.
The complete culture medium for the assay was: • DMEM F-12 (1:1) MIXTURE (LONZA cat. No: BE04-687F/U1) 500 mL • 5 mL of 100 mM Sodium Pyruvate (LONZA cat. No: BE12-115E) • 25 mL of 7.5% Sodium Bicarbonate (LONZA cat. No BE17-613E) • 6.5 mL of 1 M Hepes (LONZA cat. No: BE17-737E) • 5 mL of 100× Penicillin/Streptomycin (LONZA cat. No DE17-602E) • 50 mL of Fetal Bovine Serum (Euroclone cat. No ECS 0180L) • 0.25 mL of 10 mg/mL Puromycin (InvivoGen cat.: ant-pr-1) • 0.5 mL of 100 mg/mL Zeocin (InvivoGen cat.: ant-zn-1)
Cryo-preserved CHO-Gal4/GR cells were suspended in complete medium and 5000 cells/25 μl/well were seeded into the wells of 384-well polystyrene assay plates (Thermo Scientific, cat. #4332) and cultured at 37° C., 5% CO2 and 95% humidity. After 24 hours growth medium was carefully removed and replaced by 30111 Opti-MEM (GIBCO, cat. #31985062) as assay buffer. To test the compounds an 8-point half-log compound dilution curve was generated in 100% DMSO starting from a 2 mM stock and compounds were then diluted 1:50 in Opti-MEM. 10111 of compounds were then added to the wells containing 30 μl Opti-MEM resulting in a final assay concentration range from 10 μM to 0.003 μM in 0.5% DMSO. Compounds were tested at 8 concentrations in quadruplicate data points. […] Finally, cells were lysed with 20 μl of Triton/Luciferin solution and the signal of the emitted luminescence was recorded at the FLIPR^TETRA for 2 minutes. […]
In the case of `CCc1nnc2n1-c1c(C)c(-c3cc(F)cc4c(C)c[nH]c34)cc(F)c1NC2(C)C` [Example 316, 1-Ethyl-6-fluoro-8-(5-fluoro-3-methyl-1H-indol-7-yl)-4,4,9-trimethyl-5H-[1,2,4]triazolo[4,3-a]quinoxaline], the IC50 or EC50 (antagonist or agonist mode, not stated per compound) was 0.1 to 1 µM.
Take `Cc1c(-c2cccc3[nH]ccc23)c(F)c(F)c2c1-n1c(C)nnc1C(C)(C)N2` [Example 512, 6,7-Difluoro-8-(1H-indol-4-yl)-1,4,4,9-tetramethyl-5H-[1,2,4]triazolo[4,3-a]quinoxaline]: the IC50 or EC50 (antagonist or agonist mode, not stated per compound) is under 0.1 µM.
With `Cc1c[nH]c2c(-c3cc(F)c4c(c3C(F)F)-n3c(C)nnc3C(C)(C)N4)cc(F)cc12` [Example 462, 9-(Difluoro-methyl)-6-fluoro-8-(5-fluoro-3-methyl-1H-indol-7-yl)-1,4,4-trimethyl-5H-[1,2,4]triazolo[4,3-a]quinoxaline] the figure was under 0.1 µM; with `CCc1c(-c2cc(F)cc3c2ccn3CCO)cc(F)c2c1-n1c(C)nnc1C(C)(C)N2` [Example 464, 2-[4-(9-Ethyl-6-fluoro-1,4,4-trimethyl-5H-[1,2,4]triazolo[4,3-a]quinoxalin-8-yl)-6-fluoro-1H-indol-1-yl]-EtOH], 0.1 to 1 µM; with `CCc1nnc2n1-c1c(C)c(-c3cccc4c3ccn4S(C)(=O)=O)cc(F)c1NC2(C)C` [Example 308, 1-Ethyl-6-fluoro-4,4,9-trimethyl-8-(1-methylsulfonyl-1H-indol-4-yl)-5H-[1,2,4]triazolo[4,3-a]quinoxaline], under 0.1 µM.
In the case of `Cc1c(-c2cccc3c2ccn3S(=O)(=O)C2CC2)cc(F)c2c1-n1c(C)nnc1C(C)(C)N2` [Example 391, 8-[1-(Cyclopropylsulfonyl)-1H-indol-4-yl]-6-fluoro-1,4,4,9-tetramethyl-5H-[1,2,4]triazolo[4,3-a]quinoxaline], the IC50 or EC50 (antagonist or agonist mode, not stated per compound) is under 0.1 µM.
As to `Cc1c(-c2cc(F)cc3c(C)c[nH]c23)c(F)c(Cl)c2c1-n1c(C)nnc1C(C)(C)N2` [Example 508, 6-Chloro-7-fluoro-8-(5-fluoro-3-methyl-1H-indol-7-yl)-1,4,4,9-tetramethyl-5H-[1,2,4]triazolo[4,3-a]quinoxaline], the IC50 or EC50 (antagonist or agonist mode, not stated per compound) lay within 0.1 to 1 µM.
Take `Cc1c(-c2cccc3c2ccn3S(=O)(=O)C(C)C)cc(F)c2c1-n1c(C)nnc1C(C)(C)N2` [Example 366, 6-Fluoro-8-[1-(isopropylsulfonyl)-1H-indol-4-yl]-1,4,4,9-tetramethyl-5H-[1,2,4]triazolo[4,3-a]quinoxaline]: the IC50 or EC50 (antagonist or agonist mode, not stated per compound) fell in the range of 1 to 15 µM.
In the case of `Cc1nnc2n1-c1c(c(F)cc(-c3cc(F)cc4c3cnn4S(C)(=O)=O)c1C1CC1)NC2(C)C` [Example 467, 9-Cyclopropyl-6-fluoro-8-(6-fluoro-1-methylsulfonyl-1H-indazol-4-yl)-1,4,4-trimethyl-5H-[1,2,4]triazolo[4,3-a]quinoxaline], the IC50 or EC50 (antagonist or agonist mode, not stated per compound) lay within 0.1 to 1 µM.
Take `Cc1c(-c2cc(F)cc3c2ccn3S(C)(=O)=O)c(F)c(Cl)c2c1-n1c(C)nnc1C(C)(C)N2` [Example 503, 6-Chloro-7-fluoro-8-(6-fluoro-1-methylsulfonyl-1H-indol-4-yl)-1,4,4,9-tetramethyl-5H-[1,2,4]triazolo[4,3-a]quinoxaline]: the IC50 or EC50 (antagonist or agonist mode, not stated per compound) lay within 1 to 15 µM.
Take `Cc1c(-c2cccc3c(C)n[nH]c23)cc(F)c2c1-n1c(C)nnc1C(C)(C)N2` [Example 352, 6-Fluoro-1,4,4,9-tetramethyl-8-(3-methyl-1H-indazol-7-yl)-5H-[1,2,4]triazolo[4,3-a]quinoxaline]: the IC50 or EC50 (antagonist or agonist mode, not stated per compound) is 0.1 to 1 µM.
On to `Cc1c(-c2cccc3c2ccn3C)cc(F)c2c1-n1c(C)nnc1C(C)(C)N2` [Example 484, 6-Fluoro-1,4,4,9-tetramethyl-8-(1-methyl-1H-indol-4-yl)-5H-[1,2,4]triazolo[4,3-a]quinoxaline], for which the IC50 or EC50 (antagonist or agonist mode, not stated per compound) was under 0.1 µM.
`CCS(=O)(=O)n1ccc2c(-c3cc(F)c4c(c3NC)-n3c(C)nnc3C(C)(C)N4)cc(F)cc21` [Example 479, [8-[1-(Ethylsulfonyl)-6-fluoro-1H-indol-4-yl]-6-fluoro-1,4,4-trimethyl-5H-[1,2,4]triazolo[4,3-a]quinoxalin-9-yl]-methyl-amine]: the IC50 or EC50 (antagonist or agonist mode, not stated per compound) fell in the range of 0.1 to 1 µM.
With `COCCn1ccc2c(-c3cc(F)c4c(c3OC)-n3c(C)nnc3C(C)(C)N4)cc(F)cc21` [Example 54, 6-Fluoro-8-[6-fluoro-1-(2-methoxy-ethyl)-1H-indol-4-yl]-9-methoxy-1,4,4-trimethyl-5H-[1,2,4]triazolo[4,3-a]quinoxaline], the IC50 or EC50 (antagonist or agonist mode, not stated per compound) fell in the range of 0.1 to 1 µM.
For the compound `COc1c(-c2cccc3c2ccn3C)cc(F)c2c1-n1c(C)nnc1C(C)(C)N2` [Example 485, 6-Fluoro-9-methoxy-1,4,4-trimethyl-8-(1-methyl-1H-indol-4-yl)-5H-[1,2,4]triazolo[4,3-a]quinoxaline], the IC50 or EC50 (antagonist or agonist mode, not stated per compound) was 0.1 to 1 µM.
As for `Cc1c(-c2cc(C(F)(F)F)cc3[nH]ncc23)cc(F)c2c1-n1c(C)nnc1C(C)(C)N2` [Example 507, 6-Fluoro-1,4,4,9-tetramethyl-8-[6-(trifluoromethyl)-1H-indazol-4-yl]-5H-[1,2,4]triazolo[4,3-a]quinoxaline], the IC50 or EC50 (antagonist or agonist mode, not stated per compound) was in the range of 0.1 to 1 µM.
With `COc1c(-c2cc(C(F)(F)F)cc3c2ccn3S(C)(=O)=O)cc(F)c2c1-n1c(C)nnc1C(C)(C)N2` [Example 492, 6-Fluoro-9-methoxy-1,4,4-trimethyl-8-[1-methylsulfonyl-6-(trifluoromethyl)-1H-indol-4-yl]-5H-[1,2,4]triazolo[4,3-a]quinoxaline] the figure was 0.1 to 1 µM.
With `Cc1c(-c2cc(F)cc3c2ccn3S(C)(=O)=O)cc(F)c2c1-n1c(C3CC3)nnc1C(C)(C)N2` [Example 63, 1-Cyclopropyl-6-fluoro-8-(6-fluoro-1-methylsulfonyl-1H-indol-4-yl)-4,4,9-trimethyl-5H-[1,2,4]triazolo[4,3-a]quinoxaline], the IC50 or EC50 (antagonist or agonist mode, not stated per compound) is 0.1 to 1 µM.
As to `Cc1c(-c2cccc3c2ccn3S(C)(=O)=O)cc(F)c2c1-n1c(C3CC3)nnc1C(C)(C)N2` [Example 64, 1-Cyclopropyl-6-fluoro-4,4,9-trimethyl-8-(1-methylsulfonyl-1H-indol-4-yl)-5H-[1,2,4]triazolo[4,3-a]quinoxaline], the IC50 or EC50 (antagonist or agonist mode, not stated per compound) fell in the range of 1 to 15 µM.
With `COc1c(-c2cc(F)cc3c2ccn3S(C)(=O)=O)cc(F)c2c1-n1c(C)nnc1C(C)(C)N2` [Example 56, 6-Fluoro-8-(6-fluoro-1-methylsulfonyl-1H-indol-4-yl)-9-methoxy-1,4,4-trimethyl-5H-[1,2,4]triazolo[4,3-a]quinoxaline] the figure was 0.1 to 1 µM.

The values are drawn from US11981677B2, “Further substituted triazolo quinoxaline derivatives” (Grünenthal GmbH, priority 2018, dated 2024).
